Assays:
[1] = tested on: rat primary cortical neurons; assay: Viability (Calcein-AM) under glutamate-induced excitotoxicity; type: cell-based; conditions: glutamate (30 μM) for 24 h, reEPO 0.5 IU/ml, peptides 1 ng/ml, n = 3, Fig. 4e
Description: On the embryonic day 17, embryonic cerebral cortices were dissected from pregnant Sprague–Dawley rats. The cerebral cortices were treated with 0.25% trypsin-EDTA (#25200056, Gibco, USA) and then mechanically dissociated into single cells by pipetting. The dissociated cells were plated on 96-well plates coated by 50 μg/ml poly-L-lysine (P8920, Sigma-Aldrich, USA) at a density of 2.5 × 10^4 cells per well. They were incubated in neurobasal medium (#21103049, Gibco, USA) containing 2% B27 supplement (#17504044, Gibco, USA), 0.5 mM L-glutamine (#15430614, Gibco, USA), 25 μM glutamic acid (#G1251, Sigma-Aldrich, USA), and 1% penicillin/streptomycin (#15140122, Gibco, USA) at 37°C with 5% CO2. The medium was changed to a fresh medium without glutamate every 3–4 days, and on day 10, glutamic acid (30 μM) was added to induce excitotoxicity in the cells treated with or without reEPO and peptides.
To measure the viability of rat primary cortical neurons, we used Calcein-AM (#C3100MP, Invitrogen, USA). Cultured rat cortical neurons plated on 96-well plates (2.5 × 10^4 cells per well) were incubated with Calcein-AM (3 μM) for 30 min after various treatments. The intensity of the Calcein-AM signal (excitation, 485 nm; detection 535 nm) was measured by using a micro plate reader (VersaMax, Molecular Devices, USA).

AKT = assay: Time-series immunoblot of phosphorylated AKT; type: cell-based, rat; conditions: PC12 cells; 1 nM; deficient level by 30 min, maintained at 90 min; n = 3
Description: (§1) PC12 or HT-22 cells were lysed in 100 mM Tris-Cl (pH 6.8) with 4% SDS. The lysates were loaded onto sodium dodecyl sulfate-polyacrylamide gel electrophoresis (SDS-PAGE) (8–10%), and the proteins were transferred onto the nitrocellulose membrane. The membrane was blocked with 0.1% TBST and 5% non-fat dry milk at 25°C for 30 min. Primary antibodies were diluted in 0.1% TBST and 3% bovine serum albumin (BSA). The primary antibodies included anti-pJAK2 (#3776, Cell Signaling Technology, USA), anti-JAK2 (#3230, Cell Signaling Technology, USA), anti-pSTAT5 (#9351, Cell Signaling Technology, USA), anti-STAT5 ([…], Cell Signaling Technology, USA), anti-pAKT (#9271, Cell Signaling Technology, USA), anti-AKT (#9272, Cell Signaling Technology, USA), anti-pERK (#9101, Cell Signaling Technology, USA) anti-ERK (#9102, Cell Signaling Technology, USA), anti-EPOR (#sc-365662, Santa Cruz Biotechnology, USA), anti-β-Actin (Santa Cruz Biotechnology, USA), anti-Bax (Santa Cruz Biotechnology, USA), anti-cleaved Casp3 (Cell Signaling Technology, USA), and anti-cleaved Parp1 (Cell Signaling Technology, USA).

EPOR = assay: Time-series immunoblot of EPOR protein level; type: cell-based, rat; conditions: PC12 cells; 1 nM; normalized by β-Actin; n = 3
Description: as §1

Bax = assay: Immunoblot of Bax after hypoxia and re-oxygenation; type: cell-based, mouse; conditions: HT-22 cells; reEPO 0.5 IU/ml, ML1-h3 1 ng/ml; normalized by β-Actin; n = 6
Description: as §1
(§2) The HT-22 cells were seeded onto 96-well or 6-well plates. The next day, HT-22 cells were placed inside a sealed air-tight container consisting of an anaeropack (Mitsubishi Gas Company, Tokyo, Japan), which can induce a hypoxic atmosphere by absorbing oxygen and generating carbon dioxide. […]

cleaved Parp1 = assay: Immunoblot of cleaved Parp1 after hypoxia and re-oxygenation; type: cell-based, mouse; conditions: HT-22 cells; reEPO 0.5 IU/ml, ML1-h3 1 ng/ml; normalized by β-Actin; n = 6
Description: as §1, §2

mouse ischemic model = assay: Middle cerebral artery occlusion (MCAO) and reperfusion, TTC staining of brain; type: in vivo; conditions: MCAO 90 min, 24 h reperfusion, intravenous reEPO 2000 IU/kg (n = 4)
Source text: The protocol of this experiment was approved by the Animal Care and Use Committee of the Keimyung University School of Medicine. After 1 week of acclimatization, mice were anesthetized with 3% isoflurane in a mixture of 70% N2O and 30% O2, and the anesthesia was maintained with 1.5–2.0% isoflurane. After the neck skin incision, the bifurcation of the common carotid artery was exposed. The external carotid artery was ligated, and the internal carotid artery was carefully isolated from the vagus nerve. A microvascular clip was placed across the right common carotid artery. Through the external carotid stump, a 7–0 surgical nylon monofilament with silicon coat was advanced into the right internal carotid artery up to the origin of the middle cerebral artery. […] During the surgery, rectal temperature was monitored and maintained at 37 ± 0.5 °C with a feedback-controlled heating pad (CMA 150, Stockholm, Sweden). […]
The brain was rapidly dissected out and coronally sliced into 2-mm-thick sections. […] The infarct volumes of the TTC-stained brain sections were imaged with a digital camera and analyzed. Using NIH ImageJ software (NIH, USA), the intensity of TTC in MCAO- and no-MCAO-performed hemispheres were digitally measured, and the ratio (MCAO versus non-MCAO) was presented as a percentage.

Substance: reEPO: Recombinant human EPO (Epoetin-α, CJ HealthCare Corporation)
- Neuroprotective effect against glutamate-induced excitotoxicity (viability) [1]: showed a neuroprotective effect against glutamate-induced excitotoxicity
- Level of phosphorylated AKT (pAKT) over time (AKT): gradually reduced phosphorylated AKT
- Level of EPOR protein over time (EPOR): gradually decreased by reEPO for 15–45 min, and subsequently, it rapidly recovered to the basal level at 60 min
- Level of Bax under H/R (Bax): efficiently reduced the levels of Bax
- Level of cleaved Parp1 under H/R (cleaved Parp1): efficiently reduced the levels of Bax, cleaved Caspase 3, and cleaved Parp1
- TTC staining in MCAO-performed versus contralateral side (brain injury) (mouse ischemic model): inhibited extinction of TTC-staining in MCAO-performed side

Reference: paper PMC8715119, “Second-generation non-hematopoietic erythropoietin-derived peptide for neuroprotection” (Redox Biology, 2021)
